Laboratory results published in patent US20190106721A1, “Method for the fermentative production of L-amino acids” (priority 2017, published 2019).
In brackets after ≈: the same amount, converted by molar mass.

Tests used:
Assay in all cases: Minimal inhibitory concentration test (MIC-Test) of lincomycin, serial dilution in liquid culture
[1] = test system: DM1933_ΔlmrB::EcoRV/pVWEx1_lmrB^DM1547; assay type: cell-based; settings: Corynebacterium glutamicum, 20 h
Protocol: (§1) For this purpose a first well of a microliter plate was filled with 360 μl of BHI medium supplemented with 0.3 mM IPTG and 250 μg/ml lincomycin-hydrochloride. A volume of 180 μl was removed and placed into a second well previously filled with 180 μl BHI medium supplemented with 0.3 mM IPTG. Thus a second well containing BHI medium supplemented with 0.3 mM IPTG and 125 μg/ml lincomycin-hydrochloride was prepared. From said second well 180 ∞l were removed and placed into a third well previously filled with 180 μl BHI medium supplemented with 0.3 mM IPTG. These dilution steps were repeated several times to cover the concentration range mentioned above. Thus wells containing 180 μl of the respective test medium were obtained. A control medium without lincomycin-hydrochloride was included in the test procedure.
A preculture of the strain to be tested was made in BHI medium (as described under cultivation) supplemented with 250 μg/ml kanamycin in case of plasmid containing strains). The preculture was centrifuged and the cell pellet resuspended in 0.9% (w/v) NaCl solution to give an OD660 of 1.0. […] After 20 h the optical densities were measured. […]
(§2) The MIC's of lincomycin for strains DM1933_ΔlmrB::EcoRV/pVWEx1 and DM1933_ΔlmrB::EcoRV/pVWEx1_lmrB^DM1547 constructed in examples 8 and 11 were determined as described in materials and methods.

[2] = test system: DM1933_ΔlmrB::EcoRV/pVWEx1; assay type: cell-based, Corynebacterium glutamicum; settings: 20 h
Protocol: as §1, with “A control medium without lincomycin-hydrochloride was included in the test procedure.” left out
A preculture of the strain to be tested was made in BHI medium (as described under cultivation) supplemented with 250 μg/ml kanamycin in case of plasmid containing strains). […] After 20 h the optical densities were measured. […]
(§3) The MIC's of lincomycin for strains ATCC13032/pVWEx1; ATCC13032/pVWEx1_lmrB^ATCC14067; DM1933_ΔlmrB::EcoRV/pVWEx1 and DM1933_ΔlmrB::EcoRV/pVWEx1_lmrB^ATCC14067 constructed in example 8 were determined as described in materials and methods.
as §2

ATCC13032/pVWEx1 = assay type: cell-based; settings: Corynebacterium glutamicum; strain ATCC13032/pVWEx1; as lincomycin-hydrochloride; BHI medium with 0.3 mM IPTG, 20 h, 33° C.
Protocol: as §1
(§4) A preculture of the strain to be tested was made in BHI medium (as described under cultivation) supplemented with 250 μg/ml kanamycin in case of plasmid containing strains). The preculture was centrifuged and the cell pellet resuspended in 0.9% (w/v) NaCl solution to give an OD660 of 1.0. A volume of 20 μl of the suspension was used to inoculate the test medium contained in the wells. The micro titer plate was incubated at 300 rpm and 33° C. in an Infors HT Multitron standard incubator shaker from Infors GmbH (Bottmingen, Switzerland). After 20 h the optical densities were measured. The test medium having the lowest concentration of lincomycin-hydrochloride preventing growth of the culture is given as MIC.
as §3

[3] = test system: ATCC13032/pVWEx1_lmrB^ATCC14067; assay type: cell-based; settings: Corynebacterium glutamicum, 20 h
Protocol: as §1, §4, §3

[4] = test system: DM1933_ΔlmrB::EcoRV/pVWEx1_lmrB^ATCC14067; assay type: cell-based; settings: Corynebacterium glutamicum, ATCC14067, 20 h
Protocol: as §1, §4, §3

## CCC[C@@H]1C[C@@H](C(=O)N[C@@H]([C@H]2O[C@H](SC)[C@H](O)[C@@H](O)[C@H]2O)[C@@H](C)O)N(C)C1 [lincomycin, Lincomycin]
[1]
  MIC: 62.5 µg/mL (≈ 154 µM)
[2]; Corynebacterium glutamicum
  MIC: 7.8 µg/mL (≈ 19.2 µM)
[2]; strain DM1933_DlmrB/pVWEx1 (Table 25), as lincomycin-hydrochloride, BHI medium with 0.3 mM IPTG, 33° C.
  MIC: 7.8 µg/mL (≈ 19.2 µM)
ATCC13032/pVWEx1
  MIC: 15.6 µg/mL (≈ 38.4 µM)
[3]
  MIC: 125 µg/mL (≈ 307 µM)
[4]
  MIC: 62.5 µg/mL (≈ 154 µM)
